System: Male beagle dogs
Assay: Experiment on gastrointestinal motility in dogs
Assay type: in vivo, dog
Conditions: 4 or 8 hr after administration, compared with solvent administration group
Protocol: Experiment on Gastrointestinal Motility in Dogs
Male beagle dogs each equipped with four pressure transducers (one in the ileum and three in the large intestine) were used after an acclimation period for 15 days. The compound of Example 13 (0.03 mg/kg) or the compound of Example 60 (1 mg/kg) was suspended in 0.5% methylcellulose solution and orally administered at a volume of 10 mL/kg. Only 0.5% methylcellulose was administered to a solvent administration group.
HAPC (abbreviation for high amplitude propagated contractions which mean strong contractions propagated from the oral side to the anal side of the large intestine during defecation. Intestinal contraction pattern observed during normal defecation.) at 4 or 8 hr after administration was counted using a telemeter for gastrointestinal motility (GTS-850, STARMEDICAL).

COCCNC(=O)c1ccc(Cc2cc(C(=O)N[C@H]3CCOC[C@@H]3O)c(F)c3c2OCC3)cc1F [Example 13, 1,5-anhydro-2,3-dideoxy-3-(((4-fluoro-7-(3-fluoro-4-((2-methoxyethyl)carbamoyl)benzyl)-2,3-dihydro-1-benzofuran-5-yl)carbonyl)amino)-L-threo-pentitol]
number of HAPCs in the intestinal tract (oral 0.03 mg/kg): an increase in the number of HAPCs in the intestinal tract was observed

COCCCNC(=O)c1ccc(Cc2cc(C(=O)N[C@H]3CCOC[C@@H]3O)c(OC)c3c2CCC3)cc1F [Example 60, 1,5-anhydro-2,3-dideoxy-3-(((7-(3-fluoro-4-((3-methoxypropyl)carbamoyl)benzyl)-4-methoxy-2,3-dihydro-1H-inden-5-yl)carbonyl)amino)-L-threo-pentitol]
number of HAPCs in the intestinal tract (oral 1 mg/kg): an increase in the number of HAPCs in the intestinal tract was observed
